According to PubChem BioAssay (NCI):
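All cell lines were grown in 96-well plates and treated with compound for 48 hours. GI50 = concentration required for 50% inhibition of growth. At the TGI there is no net growth.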

Legend:
Assay in all cases: NCI-60 cell line screen, 48 h
CCRF-CEM leukemia = tested on: CCRF-CEM leukemia
IGROV1 ovarian = tested on: IGROV1 ovarian
HT29 colon = tested on: HT29 colon
RXF 393 renal = tested on: RXF 393 renal
SW-620 colon = tested on: SW-620 colon
CAKI-1 renal = tested on: CAKI-1 renal
KM12 colon = tested on: KM12 colon
SN12C renal = tested on: SN12C renal
SK-MEL-5 melanoma = tested on: SK-MEL-5 melanoma
SF-295 CNS = tested on: SF-295 CNS

Row | SMILES | GI50 (CCRF-CEM leukemia) [µM] | TGI (CCRF-CEM leukemia) [µM] | GI50 (IGROV1 ovarian) [µM] | TGI (IGROV1 ovarian) [µM] | GI50 (HT29 colon) [µM] | TGI (HT29 colon) [µM] | GI50 (RXF 393 renal) [µM] | TGI (RXF 393 renal) [µM] | GI50 (SW-620 colon) [µM] | TGI (SW-620 colon) [µM] | GI50 (CAKI-1 renal) [µM] | TGI (CAKI-1 renal) [µM] | GI50 (KM12 colon) [µM] | TGI (KM12 colon) [µM] | GI50 (SN12C renal) [µM] | TGI (SN12C renal) [µM] | GI50 (SK-MEL-5 melanoma) [µM] | TGI (SK-MEL-5 melanoma) [µM] | GI50 (SF-295 CNS) [µM] | TGI (SF-295 CNS) [µM]
1 | CCOC(=O)Cc1csc(Nc2nc(O)c(C3=c4ccccc4=NC3=O)s2)n1 | 21.1 | 50.8 | 27.2 | 69 | 46 | > 100 | 41.3 | > 100 | 68.5 | > 100 | 24.3 | 57.2 | 20.4 | 68.9 | 28 | 98.2 | 28.5 | > 100 | 32.1 | 75.3
2 | CCCCN(CCCC)C(=O)C(=O)C(C(=O)C(=O)OC)c1nc2ccccc2o1 (stereo not given) | – | > 100 | – | > 100 | – | > 100 | – | 99 | – | > 100 | – | > 100 | – | > 100 | – | > 100 | – | > 100 | – | > 100
3 | COc1c(O)cc2c(c1CC=C(C)C)OC(=O)c1c(cc(O)c(CC=C(C)C)c1O)O2 | 7.63 | 25 | 4.14 | 7.91 | 4.39 | 8.7 | 4.02 | 7.75 | 3.42 | 7.05 | 4.32 | 8.61 | 4.12 | 7.71 | 3.67 | 7.37 | 4.24 | 7.91 | 4.32 | 8.13
4 | Cc1cc2c(=O)cc(-c3ccc(Cl)c(Cl)c3)oc2c(C(=O)O)c1C | – | > 100 | – | > 100 | – | > 100 | – | > 100 | – | > 100 | – | > 100 | – | > 100 | – | > 100 | – | > 100 | – | > 100
5 | Cc1cc2c(cc1C)[n+](=O)c(C(=O)CC(=O)C(=O)Nc1ccccc1C)c(C)n2[O-] | – | > 100 | – | > 100 | – | > 100 | – | > 100 | – | > 100 | – | > 100 | – | > 100 | – | > 100 | – | > 100 | – | > 100
6 | CC(=O)N[C@@H](Cc1ccc(OP(=O)(O)O)cc1)C(=O)N[C@H]1CCC(=O)N2CCC[C@@H](C(=O)NCc3cccc4ccccc34)N2C1=O | > 25 | > 25 | > 25 | > 25 | > 25 | > 25 | > 25 | > 25 | > 25 | > 25 | > 25 | > 25 | > 25 | > 25 | > 25 | > 25 | > 25 | > 25 | > 25 | > 25
7 | CN(CC(=O)O)S(=O)(=O)c1ccc(Cl)cc1 | – | > 100 | – | > 100 | – | > 100 | – | > 100 | – | > 100 | – | > 100 | – | > 100 | – | > 100 | – | > 100 | – | > 100
8 | c1ccc2c(CNCCCN3CCN(CCCNCc4cccc5ccccc45)CC3)cccc2c1 | – | 3 | – | 10.1 | – | 3.2 | – | 2.4 | – | 3.25 | – | 4.02 | – | 3.7 | – | 13.5 | – | 3.14 | – | 3.28
9 | CC(C)[C@]12O[C@H]1[C@@H]1O[C@]13[C@]1(O[C@H]1C[C@H]1C4=C(CC[C@@]13C)C(=O)OC4)[C@@H]2OC(=O)OC(C)(C)C | 0.0377 | > 100 | 0.0164 | – | < 0.0121 | – | < 0.0118 | 0.0286 | < 0.01 | > 100 | 0.0226 | > 100 | 0.116 | 3.41 | 0.0261 | > 100 | 0.0114 | 0.0247 | 0.0336 | > 100
10 | CSc1nc(SC)c2cnn(-c3ccnc4cc(Cl)ccc34)c2n1 | > 100 | > 100 | 47.8 | > 100 | > 100 | > 100 | 14.2 | 48.6 | > 59.1 | > 100 | 22.9 | > 100 | > 100 | > 100 | 51 | > 100 | 51.9 | > 100 | 5.46 | > 100
11 | N#CCC(=O)N/N=C(/C(=O)Nc1ccccc1)C1C(=O)N(c2ccccc2)N=C1N (stereo not given) | – | > 100 | – | > 100 | – | > 100 | – | > 100 | – | > 100 | – | > 100 | – | > 100 | – | > 100 | – | > 100 | – | > 100
12 | O=C(NCCCNc1cc(-c2cn(-c3ccccc3)nc2-c2cccc(O)c2)ccn1)c1ccc(F)cc1 | 1.54 | > 100 | 4.22 | 24.9 | 1.7 | 5.43 | 1.63 | 4.63 | 2.95 | 9.55 | 2.84 | 21.2 | 3.18 | 12.3 | 4.29 | 30.8 | 1.61 | 3.55 | 1.86 | 4.58
13 | CC1=CC=C2C(C)(C)CC[C@@H]3OC(=O)[C@H]1[C@]23C | – | > 100 | – | > 100 | – | > 100 | – | > 100 | – | > 100 | – | > 100 | – | > 100 | – | > 100 | – | > 100 | – | > 100
14 | COC(=O)Nc1nc2ccc(C(=O)C3CC3)cc2[nH]1 | 0.332 | – | 0.29 | 18.2 | 0.295 | 6.31 | 0.345 | – | 0.297 | > 100 | 0.305 | > 51.6 | 0.283 | 1.68 | 0.717 | > 100 | 0.385 | 6.23 | 0.248 | –
15 | CCOC(=O)c1c2c(n(Cc3ccccc3)c1C)-c1nc[nH]c1C(=O)C2=O | 1.57 | 7.87 | 16.7 | 30.6 | 28.9 | 76.4 | 11.2 | 23.2 | 20.5 | 41.8 | 18.5 | 38.5 | 13.9 | 27.7 | 16.4 | 30 | 15.9 | 29.8 | 15.3 | 30.9
